Laboratory results as given in patent US10028992B2, “Methods of treating muscular dystrophy” (BOARD OF REGENTS OF THE NEVADA SYSTEM OF HIGHER EDUCATION …, priority 2012, dated 2018).

Test system: α7 integrin promoter
Assay: muscle cell-based assay: α7βgal+/− myoblasts/myotubes, LacZ reporter, β-galactosidase cleavage of FDG
Design: species or system mouse; Results in α7+/− β-galactosidase assay: scale not given here
Settings: for Results in a α7+/− β-galactosidase assay, Myotubes, 0.5 uM: compound at 0.5 uM; for Results in a α7+/− β-galactosidase assay, Myotubes, 1 uM: compound at 1 uM; for Results in a α7+/− β-galactosidase assay, Myotubes, 5 uM: compound at 5 uM; for Results in a α7+/− β-galactosidase assay, Myotubes, 10 uM: compound at 10 uM; for Results in a α7+/− β-galactosidase assay, Myotubes, 20 uM: compound at 20 uM; for Results in a α7+/− β-galactosidase assay, Myotubes, 40 uM: compound at 40 uM; for AC50 / Fit HillSlope / Fit Zero Activity [%] / Fit Curve Class: Table 12; for AC50: log of AC50, given with negative sign, unit of AC50 not given, read-out: Fit Log AC50 (converted); for Fit HillSlope: curve fit; for Fit Zero Activity [%]: fitted activity at zero concentration; for Fit Curve Class: key not given; for Score: Table 12 Compound data, concentration-response curve fit
Procedure: An α7 integrin null mouse was produced in which exon 1 of the gene encoding the α7 integrin was replaced by the LacZ reporter. In these mice, all the transcriptional regulatory elements of the α7 integrin promoter were retained, allowing β-galactosidase to report expression of 7 integrin. A primary myoblast cell line (designated α7βgal^+/−) isolated from 10 day old α7^+/− pups were analyzed for the ability of β-galactosidase to report α7 integrin expression. α7βgal^+/− myoblasts were differentiated and subjected to X-gal staining and western analysis (FIGS. 1A and 1B).
The activity of the α7 integrin promoter was measured by β-galactosidase cleavage of the non-fluorescent compound fluorescein di-β-D-galactopyranoside (FDG) to fluorescein. This assay was used to screen compound libraries to identify molecules that up-regulate α7 integrin expression in muscle.
Also evaluated was the effect of various isoforms of laminin and the ligand for α7β1 integrin on integrin expression. Positive hits were subjected to dose-response analysis, western analysis and a myostatin counterscreen (a negative regulator of muscle growth).

CC(C)CN(C(=O)c1cccc(Cl)c1)c1c(N)n(Cc2ccccc2)c(=O)[nH]c1=O [drawing 544]
Results in α7+/− β-galactosidase assay (Myoblasts, 0.5 uM): 0.1169
Results in α7+/− β-galactosidase assay (Myoblasts, 1 uM): 0.2337
Results in α7+/− β-galactosidase assay (Myoblasts, 5 uM): 0.01239
Results in α7+/− β-galactosidase assay (Myoblasts, 10 uM): −0.05318
Results in α7+/− β-galactosidase assay (Myoblasts, 20 uM): −0.1028
Results in α7+/− β-galactosidase assay (Myoblasts, 40 uM): −0.2221

COc1ccccc1/C=C1\C(=O)Nc2ccccc21 [drawing 700]
Results in α7+/− β-galactosidase assay (Myoblasts, 0.5 uM): 0.2078
Results in α7+/− β-galactosidase assay (Myoblasts, 1 uM): 0.1004
Results in α7+/− β-galactosidase assay (Myoblasts, 5 uM): 0.141
Results in α7+/− β-galactosidase assay (Myoblasts, 10 uM): 0.312
Results in α7+/− β-galactosidase assay (Myoblasts, 20 uM): −0.00605
Results in α7+/− β-galactosidase assay (Myoblasts, 40 uM): −0.06928

Cc1cccc(NCC(=O)N/N=C/c2ccccn2)c1 [drawing 483]
Results in a α7+/− β-galactosidase assay, Myotubes, 0.5 uM (Myotubes): 0.07633
Results in a α7+/− β-galactosidase assay, Myotubes, 1 uM (Myotubes): −0.04251
Results in a α7+/− β-galactosidase assay, Myotubes, 5 uM (Myotubes): 0.2712
Results in a α7+/− β-galactosidase assay, Myotubes, 10 uM (Myotubes): −0.04805
Results in a α7+/− β-galactosidase assay, Myotubes, 20 uM (Myotubes): 0.03613
Results in a α7+/− β-galactosidase assay, Myotubes, 40 uM (Myotubes): −0.1705

CCOc1ccccc1NC(=O)c1cccc2c1C(=O)N(C1CCCCC1)C2 [drawing 499]
Results in a α7+/− β-galactosidase assay, Myotubes, 0.5 uM (Myotubes): 0.0377
Results in a α7+/− β-galactosidase assay, Myotubes, 1 uM (Myotubes): −0.1345
Results in a α7+/− β-galactosidase assay, Myotubes, 5 uM (Myotubes): −0.3317
Results in a α7+/− β-galactosidase assay, Myotubes, 10 uM (Myotubes): −0.3744
Results in a α7+/− β-galactosidase assay, Myotubes, 20 uM (Myotubes): −0.1769
Results in a α7+/− β-galactosidase assay, Myotubes, 40 uM (Myotubes): −0.1762

O=S(=O)(N/C(=N/C1CCCCC1)c1ccccc1F)c1ccccc1 [drawing 542]
Results in α7+/− β-galactosidase assay (Myoblasts, 0.5 uM): 0.02381
Results in α7+/− β-galactosidase assay (Myoblasts, 1 uM): 0.1877
Results in α7+/− β-galactosidase assay (Myoblasts, 5 uM): 0.03277
Results in α7+/− β-galactosidase assay (Myoblasts, 10 uM): 0.0429
Results in α7+/− β-galactosidase assay (Myoblasts, 20 uM): 0.04651
Results in α7+/− β-galactosidase assay (Myoblasts, 40 uM): 0.01846

CCN(CC)CCNC(=O)c1c(C)[nH]c(CC2C(=O)Nc3ccc(F)cc32)c1C (centres unmarked) [drawing 715]
Result in α7+/− β-galactosidase assay (Myoblasts, 0.5 uM): −0.1627
Result in α7+/− β-galactosidase assay (Myoblasts, 1 uM): 0.03203
Result in α7+/− β-galactosidase assay (Myoblasts, 5 uM): −0.6776
Result in α7+/− β-galactosidase assay (Myoblasts, 10 uM): −0.9863
Result in α7+/− β-galactosidase assay (Myoblasts, 20 uM): −0.9859
Result in α7+/− β-galactosidase assay (Myoblasts, 40 uM): −0.9872

CC1CCCCC12NC(=O)N(CC(=O)OCc1cccc(F)c1)C2=O (centres unmarked) [Compound 67]
AC50 (Mus musculus): 10 µM
Fit HillSlope: 1.4163
Fit Zero Activity [%]: 4.7344%
Fit Curve Class: 2.1
Score: 44

O=C1Nc2ccccc2/C1=C1/Nc2ccccc2/C1=N\O [drawing 514]
Results in α7+/− β-galactosidase assay (Myotubes, 0.5 uM): −0.111
Results in α7+/− β-galactosidase assay (Myotubes, 1 uM): −0.1122
Results in α7+/− β-galactosidase assay (Myotubes, 5 uM): −0.8688
Results in α7+/− β-galactosidase assay (Myotubes, 10 uM): −1.081
Results in α7+/− β-galactosidase assay (Myotubes, 20 uM): −0.5041
Results in α7+/− β-galactosidase assay (Myotubes, 40 uM): −0.6481

CC(=O)Nc1ccc(NC(=O)C/C(C)=N/NC(=O)COc2cc(C)c(Br)cc2Br)cc1 [drawing 657]
Results in α7+/− β-galactosidase assay (Myoblasts, 0.5 uM): −0.2303
Results in α7+/− β-galactosidase assay (Myoblasts, 1 uM): −0.07096
Results in α7+/− β-galactosidase assay (Myoblasts, 5 uM): 0.03872
Results in α7+/− β-galactosidase assay (Myoblasts, 10 uM): −0.07468
Results in α7+/− β-galactosidase assay (Myoblasts, 20 uM): −0.3089
Results in α7+/− β-galactosidase assay (Myoblasts, 40 uM): −0.4449

CCc1ccc(N(C(=O)c2snc(C(N)=O)c2N)C(C(=O)NC2CCCC2)c2ccco2)cc1 (centres unmarked) [Compound 17]
AC50 (Mus musculus): 2.51 µM
Emax (Mus musculus, read-out: Max Response [%]): 67.6%
Fit HillSlope: 1.2475
Fit Zero Activity [%]: −24.7641%
Fit Curve Class: 1.1
Score: 84

O=C(O)C(Cc1ccc(O)cc1)N1C(=O)c2ccccc2C1=O (centres unmarked) [drawing 619]
Results in α7+/− β-galactosidase assay (Myoblasts, 0.5 uM): 0.1486
Results in α7+/− β-galactosidase assay (Myoblasts, 1 uM): 0.2007
Results in α7+/− β-galactosidase assay (Myoblasts, 5 uM): 0.1591
Results in α7+/− β-galactosidase assay (Myoblasts, 10 uM): −0.04895
Results in α7+/− β-galactosidase assay (Myoblasts, 20 uM): 0.03548
Results in α7+/− β-galactosidase assay (Myoblasts, 40 uM): 0.007087

Cc1[nH]c(/C=C2\C(=O)Nc3ccccc32)c(C)c1CCC(=O)O [drawing 717]
Result in α7+/− β-galactosidase assay (Myoblasts, 0.5 uM): 0.01086
Result in α7+/− β-galactosidase assay (Myoblasts, 1 uM): 0.05675
Result in α7+/− β-galactosidase assay (Myoblasts, 5 uM): −0.0938
Result in α7+/− β-galactosidase assay (Myoblasts, 10 uM): −0.1338
Result in α7+/− β-galactosidase assay (Myoblasts, 20 uM): −0.04064
Result in α7+/− β-galactosidase assay (Myoblasts, 40 uM): −0.0832
